Assay results taken from patent publication US20250179083A1, “TRICYCLIC TRIAZOLO COMPOUNDS AS DGK INHIBITORS” (Incyte Corporation, priority 2023, published 2025).

Legend:
DGKα = target: T1, DGKα (Homo sapiens, UniProt P23743); assay: In vitro DGKα inhibition assay (ADP-Glo); type: biochemical; conditions: His-tagged human recombinant DGKα 0.1 nM, 50 μM ATP, 20 μM DLG, 90 minute incubation
T1 construct: His; purchased Signal Chem D21-10BH
Experimental: (§1) The DGKα and DGKζ biochemical reactions were performed using His-tagged human recombinant enzymes (Signal Chem, DGKα, #D21-10BH; DGKζ, #D30-10H)) and DLG (Dilauroyl-sn-glycerol) lipid substrate (Signal Chem, #D430-59). ADP-Glo assay was performed using ADP-Glo™ kinase Assay kit (Promega, #V9104). The reactions were carried out in assay buffer containing 40 mM Tris, pH 7.5, 0.1% CHAPS, 0.1% Prionex, 40 mM NaCl, 5 mM MgCl2, 1 mM CaCl2, and 1 mM DTT. DGKα reactions contained 0.1 nM DGKα, 50 μM ATP, and 20 μM DLG. And DGKζ reactions contained 0.4 nM DGKζ, 30 μM ATP, and 20 μM DLG.
(§2) Compounds were added with top concentration of 2 mM with 11 point, 3-fold dilution series. Enzyme solution (contains 2×DGK enzyme concentration in 1× assay buffer) was added to the plate in 2 μL/well volume, followed by 2 μL/well of substrate solution (contains 2× concentration of ATP and DLG substrate in 1× assay buffer). Plates were then centrifuged for 1 min at 1200 RPM and sealed or lidded. For 4 μL reaction volume, test compounds were therefore diluted 100× to final top concentration of 20 μM. After 90 minute incubation, reactions were quenched by addition of 2 μL/well Promega ADP-Glo Reagent, followed by centrifugation and lidding. After 60 min incubation, 2 μL/well Promega Kinase Detection Reagent was added, plates centrifuged, and incubated for 30 min. Plates were then read using Luminescence method on BMG PHERAstar FSX plate reader. Percent inhibition was calculated and IC50s were determined using 4-parameter fit in Genedata Screener. Labcyte Echo acoustic dispenser was used for compound addition, and Formulatrix Tempest liquid handler was used for all reagent dispenses.

DGKζ = target: T2, DGKζ (Homo sapiens, UniProt Q13574); assay: In vitro DGKζ inhibition assay (ADP-Glo); type: biochemical; conditions: His-tagged human recombinant DGKζ 0.4 nM, 30 μM ATP, 20 μM DLG, 90 minute incubation
T2 construct: His; purchased Signal Chem D30-10H
T2 sequence (Q13574 whole entry): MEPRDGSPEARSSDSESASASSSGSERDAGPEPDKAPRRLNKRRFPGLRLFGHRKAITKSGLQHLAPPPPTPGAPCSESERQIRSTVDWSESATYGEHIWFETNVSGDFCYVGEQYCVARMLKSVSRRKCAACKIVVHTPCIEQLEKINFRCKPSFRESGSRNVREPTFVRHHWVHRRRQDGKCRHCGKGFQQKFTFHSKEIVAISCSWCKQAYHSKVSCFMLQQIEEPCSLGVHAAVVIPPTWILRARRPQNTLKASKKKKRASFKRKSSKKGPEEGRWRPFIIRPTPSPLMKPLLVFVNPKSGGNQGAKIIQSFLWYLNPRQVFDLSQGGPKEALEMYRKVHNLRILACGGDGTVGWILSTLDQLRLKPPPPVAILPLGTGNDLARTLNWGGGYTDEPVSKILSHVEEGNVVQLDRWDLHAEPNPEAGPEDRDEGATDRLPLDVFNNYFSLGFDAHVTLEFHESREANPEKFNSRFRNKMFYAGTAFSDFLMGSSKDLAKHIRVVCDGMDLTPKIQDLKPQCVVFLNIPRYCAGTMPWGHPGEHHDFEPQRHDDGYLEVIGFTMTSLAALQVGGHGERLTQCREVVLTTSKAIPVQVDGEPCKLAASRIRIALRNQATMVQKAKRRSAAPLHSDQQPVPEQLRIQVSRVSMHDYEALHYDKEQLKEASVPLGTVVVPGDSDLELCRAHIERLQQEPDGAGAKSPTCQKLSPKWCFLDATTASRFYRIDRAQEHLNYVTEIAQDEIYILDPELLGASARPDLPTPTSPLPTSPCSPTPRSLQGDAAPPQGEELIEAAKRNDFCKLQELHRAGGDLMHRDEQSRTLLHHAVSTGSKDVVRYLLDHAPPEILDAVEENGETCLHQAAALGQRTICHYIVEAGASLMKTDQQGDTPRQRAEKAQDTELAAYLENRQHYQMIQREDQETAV
Experimental: as §1, §2

T1 sequence (P23743 whole entry): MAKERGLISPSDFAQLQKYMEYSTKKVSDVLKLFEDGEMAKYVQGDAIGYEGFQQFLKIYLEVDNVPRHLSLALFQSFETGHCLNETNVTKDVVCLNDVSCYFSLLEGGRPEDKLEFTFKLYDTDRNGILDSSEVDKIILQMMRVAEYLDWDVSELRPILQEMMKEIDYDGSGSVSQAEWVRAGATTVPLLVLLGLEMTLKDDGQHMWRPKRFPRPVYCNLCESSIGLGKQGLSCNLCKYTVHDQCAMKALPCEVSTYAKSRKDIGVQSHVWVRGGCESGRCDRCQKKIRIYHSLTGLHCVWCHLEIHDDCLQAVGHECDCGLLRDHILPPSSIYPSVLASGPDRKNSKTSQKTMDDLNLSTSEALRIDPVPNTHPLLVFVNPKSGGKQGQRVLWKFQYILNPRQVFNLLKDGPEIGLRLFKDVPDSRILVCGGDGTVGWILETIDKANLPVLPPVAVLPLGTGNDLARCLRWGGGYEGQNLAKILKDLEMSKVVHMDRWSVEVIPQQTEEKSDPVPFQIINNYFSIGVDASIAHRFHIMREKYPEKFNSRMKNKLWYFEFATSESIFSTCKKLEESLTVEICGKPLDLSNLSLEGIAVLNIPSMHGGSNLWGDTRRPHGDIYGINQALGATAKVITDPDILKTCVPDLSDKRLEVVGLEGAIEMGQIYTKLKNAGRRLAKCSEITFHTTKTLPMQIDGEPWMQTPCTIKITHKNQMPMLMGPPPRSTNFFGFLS

IC50 (DGKα)	IC50 (DGKζ)	SMILES
< 0.02 µM	< 0.02 µM	C[C@@H]1CN(c2nc3nncn3c3c2ncn3C[C@@H]2CCCO2)[C@@H](C)CN1Cc1ccc(C(F)(F)F)cc1 [Example 40, 4-((2S,5R)-2,5-Dimethyl-4-(4-(trifluoromethyl)benzyl)piperazin-1-yl)-1-(((S)-tetrahydrofuran-2-yl)methyl)-1H-[1,2,4]triazolo[3,4-b]purine]
< 0.02 µM	< 0.02 µM	CC[C@@H]1CN(c2nc3nncn3c3c2nc(C)n3C[C@@H]2CCCO2)[C@@H](C)CN1[C@@H](C)c1ccc(C(F)(F)F)cc1 [Example 41, 4-((2S,5R)-5-Ethyl-2-methyl-4-((S)-1-(4-(trifluoromethyl)phenyl)ethyl)piperazin-1-yl)-2-methyl-1-(((S)-tetrahydrofuran-2-yl)methyl)-1H-[1,2,4]triazolo[3,4-b]purine]
< 0.02 µM	< 0.02 µM	CC[C@@H]1CN(c2nc3nncn3c3c2nc(C)n3C[C@@H]2CCCO2)[C@@H](C)CN1[C@H](C)c1ccc(C(F)(F)F)cc1 [Example 42, 4-((2S,5R)-5-ethyl-2-methyl-4-((R)-1-(4-(trifluoromethyl)phenyl)ethyl)piperazin-1-yl)-2-methyl-1-(((S)-tetrahydrofuran-2-yl)methyl)-1H-[1,2,4]triazolo[3,4-b]purine]
< 0.02 µM	< 0.02 µM	C[C@@H]1CN(c2cc3nncn3c3c2ncn3C[C@@H]2CCCO2)[C@@H](C)CN1C(c1ccc(F)cc1)c1ccc(F)cc1 [Example 43, 4-((2S,5R)-4-(Bis(4-fluorophenyl)methyl)-2,5-dimethylpiperazin-1-yl)-1-(((S)-tetrahydrofuran-2-yl)methyl)-1H-imidazo[4,5-e][1,2,4]triazolo[4,3-a]pyridine]
< 0.02 µM	< 0.02 µM	C[C@@H]1CN(c2nc3nncn3c3c2ncn3CC2(O)CCCC2)[C@@H](C)CN1C(c1ccc(Cl)cc1)c1ccc(Cl)cc1 [Example 44, 1-((4-((2S,5R)-4-(Bis(4-chlorophenyl)methyl)-2,5-dimethylpiperazin-1-yl)-1H-[1,2,4]triazolo[3,4-b]purin-1-yl)methyl)cyclopentan-1-ol]
< 0.02 µM	< 0.02 µM	C[C@@H]1CN(c2nc3nncn3c3c2ncn3CC2(O)CCCC2)[C@@H](C)CN1C(c1ccc(Cl)cc1)C1CC(F)(F)C1 (stereo partly drawn) [Example 45, 1-((4-((2S,5R)-4-((4-Chlorophenyl)(3,3-difluorocyclobutyl)methyl)-2,5-dimethylpiperazin-1-yl)-1H-[1,2,4]triazolo[3,4-b]purin-1-yl)methyl)cyclopentan-1-ol]
< 0.02 µM	< 0.02 µM	C[C@@H]1CN(c2nc3nncn3c3c2ncn3CC2(O)CCCC2)[C@@H](C)CN1C(c1ccc(C(F)(F)F)cc1)C1CC(F)(F)C1 (stereo partly drawn) [Example 46, 1-((4-((2S,5R)-4-((3,3-Difluorocyclobutyl)(4-(trifluoromethyl)phenyl)methyl)-2,5-dimethylpiperazin-1-yl)-1H-[1,2,4]triazolo[3,4-b]purin-1-yl)methyl)cyclopentan-1-ol]
< 0.02 µM	< 0.02 µM	C[C@@H]1CN(c2nc3nncn3c3c2ncn3C[C@@H]2CCCO2)[C@@H](C)CN1Cc1ccc(Cl)cc1 [Example 47, 4-((2S,5R)-4-(4-Chlorobenzyl)-2,5-dimethylpiperazin-1-yl)-1-(((S)-tetrahydrofuran-2-yl)methyl)-1H-[1,2,4]triazolo[3,4-b]purine]
< 0.02 µM	< 0.02 µM	C[C@@H]1CN(c2nc3nncn3c3c2ncn3C[C@@H]2CCCO2)[C@@H](C)CN1Cc1ccc(Cl)cc1F [Example 48, 4-((2S,5R)-4-(4-Chloro-2-fluorobenzyl)-2,5-dimethylpiperazin-1-yl)-1-(((S)-tetrahydrofuran-2-yl)methyl)-1H-[1,2,4]triazolo[3,4-b]purine]
< 0.02 µM	< 0.02 µM	Cc1nc2c(N3C[C@@H](C)N(C(c4ccc(Cl)cc4)C4CC4)C[C@@H]3C)nc3nncn3c2n1C[C@@H]1CCCO1 (stereo partly drawn) [Example 54, 4-((2S,5R)-4-((4-Chlorophenyl)(cyclopropyl)methyl)-2,5-dimethylpiperazin-1-yl)-2-methyl-1-(((S)-tetrahydrofuran-2-yl)methyl)-1H-[1,2,4]triazolo[3,4-b]purine]
< 0.02 µM	0.02 to 0.2 µM	CC[C@@H](c1ccc(Cl)cc1)N1C[C@H](C)N(c2nc3nncn3c3c2ncn3C[C@@H]2CCCO2)C[C@H]1C [Example 57, 4-((2S,5R)-4-((S)-1-(4-Chlorophenyl)propyl)-2,5-dimethylpiperazin-1-yl)-1-(((S)-tetrahydrofuran-2-yl)methyl)-1H-[1,2,4]triazolo[3,4-b]purine]
< 0.02 µM	< 0.02 µM	CC[C@H](c1ccc(Cl)cc1)N1C[C@H](C)N(c2nc3nncn3c3c2ncn3C[C@@H]2CCCO2)C[C@H]1C [Example 58, 4-((2S,5R)-4-((R)-1-(4-chlorophenyl)propyl)-2,5-dimethylpiperazin-1-yl)-1-(((S)-tetrahydrofuran-2-yl)methyl)-1H-[1,2,4]triazolo[3,4-b]purine]
< 0.02 µM	< 0.02 µM	CC[C@@H](c1ccc(C(F)(F)F)cc1)N1C[C@H](C)N(c2nc3nncn3c3c2ncn3C[C@@H]2CCCO2)C[C@H]1C [Example 59, 4-((2S,5R)-2,5-Dimethyl-4-((S)-1-(4-(trifluoromethyl)phenyl)propyl)piperazin-1-yl)-1-(((S)-tetrahydrofuran-2-yl)methyl)-1H-[1,2,4]triazolo[3,4-b]purine]
< 0.02 µM	< 0.02 µM	CC[C@H](c1ccc(C(F)(F)F)cc1)N1C[C@H](C)N(c2nc3nncn3c3c2ncn3C[C@@H]2CCCO2)C[C@H]1C [Example 60, 4-((2S,5R)-2,5-dimethyl-4-((R)-1-(4-(trifluoromethyl)phenyl)propyl)piperazin-1-yl)-1-(((S)-tetrahydrofuran-2-yl)methyl)-1H-[1,2,4]triazolo[3,4-b]purine]
< 0.02 µM	< 0.02 µM	Cc1nc2c(N3C[C@@H](C)N([C@H](c4ccc5cc(C(F)(F)F)ccc5n4)C(C)C)C[C@@H]3C)nc3nncn3c2n1C[C@@H]1CCCO1 [Example 63, 4-((2S,5R)-2,5-Dimethyl-4-((S)-2-methyl-1-(6-(trifluoromethyl)quinolin-2-yl)propyl)piperazin-1-yl)-2-methyl-1-(((S)-tetrahydrofuran-2-yl)methyl)-1H-[1,2,4]triazolo[3,4-b]purine]
< 0.02 µM	< 0.02 µM	Cc1nc2c(N3C[C@@H](C)N([C@@H](c4ccc5cc(C(F)(F)F)ccc5n4)C(C)C)C[C@@H]3C)nc3nncn3c2n1C[C@@H]1CCCO1 [Example 64, 4-((2S,5R)-2,5-dimethyl-4-((R)-2-methyl-1-(6-(trifluoromethyl)quinolin-2-yl)propyl)piperazin-1-yl)-2-methyl-1-(((S)-tetrahydrofuran-2-yl)methyl)-1H-[1,2,4]triazolo[3,4-b]purine]
< 0.02 µM	< 0.02 µM	Cc1nc2c(N3C[C@@H](C)N([C@H](c4ccc(Cl)cc4)C(C)C)C[C@@H]3C)cc3nncn3c2n1C[C@@H]1CCCO1 [Example 65, 4-((2S,5R)-4-((S)-1-(4-Chlorophenyl)-2-methylpropyl)-2,5-dimethylpiperazin-1-yl)-2-methyl-1-(((S)-tetrahydrofuran-2-yl)methyl)-1H-imidazo[4,5-e][1,2,4]triazolo[4,3-a]pyridine]
< 0.02 µM	< 0.02 µM	Cc1nc2c(N3C[C@@H](C)N([C@@H](c4ccc(Cl)cc4)C(C)C)C[C@@H]3C)cc3nncn3c2n1C[C@@H]1CCCO1 [Example 66, 4-((2S,5R)-4-((R)-1-(4-chlorophenyl)-2-methylpropyl)-2,5-dimethylpiperazin-1-yl)-2-methyl-1-(((S)-tetrahydrofuran-2-yl)methyl)-1H-imidazo[4,5-e][1,2,4]triazolo[4,3-a]pyridine]
< 0.02 µM	< 0.02 µM	Cc1nc2c(N3C[C@@H](C)N(C(C)c4ccc(C(F)(F)F)cc4)C[C@@H]3C)nc3nncn3c2n1C[C@@H]1CCCO1 (stereo partly drawn) [Example 67, 4-((2S,5R)-2,5-Dimethyl-4-(1-(4-(trifluoromethyl)phenyl)ethyl)piperazin-1-yl)-2-methyl-1-(((S)-tetrahydrofuran-2-yl)methyl)-1H-[1,2,4]triazolo[3,4-b]purine]
< 0.02 µM	< 0.02 µM	CC(c1ccc(C(F)(F)F)cc1)N1C[C@H](C)N(c2nc3nncn3c3c2ncn3C[C@@H]2CCCO2)C[C@H]1C (stereo partly drawn) [Example 68, 4-((2S,5R)-2,5-Dimethyl-4-(1-(4-(trifluoromethyl)phenyl)ethyl)piperazin-1-yl)-1-(((S)-tetrahydrofuran-2-yl)methyl)-1H-[1,2,4]triazolo[3,4-b]purine]
